What was measured:
[1] = test system: human fetal cardiomyocytes; test: Cytokinesis failure in cultured human fetal cardiomyocytes (β-adrenergic receptor signaling pathway studies); type: cell-based; conditions: cultured human fetal cardiomyocytes, 10 μM, FIG. 14C
Experimental: Primary cardiomyocyte culture experiments: Neonatal (mouse or rat) cardiomyocytes or human fetal cardiomyocytes were plated in 4-well chamber slides pre-coated with fibronectin (10 μg/ml) at a density of 200,000 cells/well and cultured with DMEM/high glucose (for mouse and rat cardiomyocytes) or IMDM (for fetal human cardiomyocytes) containing 10% fetal bovine serum (FBS) and recombinant neuregulin 1 (rNRG1, 100 nanograms per milliliter (ng/ml)) overnight. All treatments and BrdU (30 micromolar (μM)) were added on the next day.
β-adrenergic receptor signaling pathway studies: Forskolin (10 μM), propranolol (10 μM), dobutamine (10 μM), or a combination of propranolol (10 μM) and dobutamine (10 μM) were added to the culture from day 1 to day 3. The cells were collected for examining gene expression or immunofluorescence microscopy at day 3.
Cardiomyocytes cultured on glass surfaces. […] The BrdU-positive nuclei, cell-cell boundaries (Pan-Cadherin antibody), and cardiomyocyte markers (α-actinin or troponin I antibody) were labeled by immunofluorescence. The stained cells were imaged under Nikon confocal microscope. The binucleated cardiomyocytes and all BrdU-positive cardiomyocytes were quantified using Fiji software.

[2] = test system: cardiomyocytes from infants with ToF/PS; test: ToF/PS myocardium tissue (organotypic) culture: binucleated BrdU-labeled cardiomyocytes; type: cell-based, human; conditions: organotypic cultures of heart pieces from infants with ToF/PS, 10 μM, BrdU, FIG. 14E
Experimental: ToF/PS myocardium tissue culture: Discarded myocardium samples were collected during ToF/PS surgery, cut into ˜1 mm^3 tissue blocks, and cultured in IMDM media containing 10% FBS, recombinant neuregulin 1 (rNRG1, 100 ng/ml), and BrdU (30 μM) for 6 days. Samples were treated with forskolin (10 μM), propranolol (10 μM), dobutamine (10 μM), or a combination of propranolol (10 μM) and dobutamine (10 μM).
Cultured ToF/PS myocardium. Cardiomyocytes were isolated from cultured myocardium with the fixation-digestion method. After denaturing the DNA with 2N HCl and neutralization with 2 Normal (N) sodium hydroxide (NaOH), immunofluorescence antibody labeling was performed in solution. The proportion of binucleated and BrdU-positive was quantified with a Nikon A1R microscope.

[3] = test system: heart muscle cells of neonatal mice; test: Neonatal mice given beta blocker by retro-orbital injection (Examples 2 and 3): total cardiomyocytes, heart-body weight ratio; type: in vivo, mouse; conditions: retro-orbital injection twice a day, 1 μg/μl, 10 μl per g body weight; for heart-body-weight ratio: FIG. 17B, 18B; for total number of heart muscle cells (cardiomyocytes): P4 and P8 groups, FIG. 17A, 18A
Experimental: (§1) Metoprolol was dissolved in PBS (1 μg/μl). The metoprolol was administered to neonatal mice using retro-orbital injection twice a day at the dose of 10 μl solution each 1 g body weight In the 4-day-old group (P4), the drug administration was performed at 9 am and 3 μm, respectively, from P1 and P3, then only injections at 9 am were performed at P4. The hearts were isolated at P4 in the afternoon. In the 8-day-old group (P8), the drug administration was performed at 9 am and 3 μm, respectively, from P1 and P7, then only injections at 9 am were performed at P8. The hearts were isolated at P8 in the afternoon.
as §1, with “Alprenolol” for “Metoprolol”, “alprenolol” for “metoprolol”, “pm,” for “μm,”

[4] = test system: cardiomyocytes of newborn mice; test: Mouse pharmacological treatment of newborn mice: binucleated cardiomyocytes, cardiomyocyte endowment, cell cycle activity, heart weight; type: in vivo; conditions: newborn mice; for increase in the proportion of binucleated cardiomyocytes: forskolin 1 μg/g, 1 i.p. injection per day, FIG. 12B
Experimental: […] An equal volume of phosphate buffered saline (PBS) was injected in the control groups.
Isolation of intact cardiomyocytes for quantification: We used a previously validated fixation digestion method to isolate intact cardiomyocytes from fresh or frozen myocardium for quantification (Mollova, M., et al. “Cardiomyocyte proliferation in human heart growth” Proceedings of the National Academy of Sciences January 2013, 110 (4) 1446-1451; DOI: 10.1073/pnas.1214608110). The myocardium was cut into 1 cubic millimeter (mm^3) sized tissue blocks followed by incubation with 3.7% formaldehyde at room temperature for 1.8 hours. After being washed with PBS 3 times to remove the formaldehyde, the fixed tissue blocks were digested in enzyme solution (Collagenase B, 3.6 mg/ml; Collagenase D, 4.8 mg/ml) at 37 degrees Celsius (° C.), with 10 revolutions per minute (rpm) overhead rotation. The digested cells were collected every 24 hours from the supernatant, and the undigested tissue was re-suspended with fresh enzyme solution until all of the tissue pieces were digested. All of the digested cells from the same heart were then combined and allowed to settle to the bottom of the tube. The cell pellet was collected for further study.
Counting of cardiomyocytes after fixation and digestion: All fractions from the digestion of a heart were combined in 2 milliliters (mL) PBS and cardiomyocytes were quantified using a hemocytometer.
Intact cardiomyocytes in suspension. To assess M-phase, intact cardiomyocytes were isolated by fixation-digestion. The solution containing the stained cells was then transferred to 8-well chambered cover glass (400 μl/well). After the cells were settled down to the bottom of the chambers, the number of mono/bi/multinucleated cardiomyocytes were counted with a fluorescence microscope, and the percentage of mono/bi/multinucleated cardiomyocytes was calculated. To quantify the proportion of H3P-positive cardiomyocytes, the concentration of stained cardiomyocytes in suspension (Ccardiomyocytes) was first measured using a hemocytometer. The cell suspension (400 μl) was then transferred to a well of a chamber slide, and the total number of H3P-positive cardiomyocytes (HH3P+) inside the well was counted with a TiE epifluorescence microscope. The proportion of the H3P-positive cardiomyocytes (PH3P+) was calculated using the following formula: […]
Heart sections: To determine S-phase, BrdU (40 μg/g body) was administered to P7 ICR mice and the hearts were resected at P8, fixed, and cryosectioned at 15 μm thickness. From each heart, four heart sections at a distance of 300 μm were selected and imaged by tile scanning with a Nikon A1R confocal microscope. The total number of BrdU-positive cardiomyocytes at the selected heart sections was counted. The total area of the selected heart sections was measured by Fiji software. The density of BrdU-positive cardiomyocytes (cells/mm^2) in the hearts was calculated using the following equation: […]
Intact cardiomyocytes in suspension. Cardiomyocytes were isolated from fresh or frozen (human or mouse) ventricle myocardium using the fixation-digestion method, followed by immunostaining as described above. The cells were then imaged and quantified with a Nikon A1R microscope for mono/bi/multi-nucleation.

Structure (SMILES): CC(CCc1ccc(O)cc1)NCCc1ccc(O)c(O)c1 (centres unmarked) [dobutamine]
- binucleated cardiomyocytes as % of the Fsk-induced increase [1]: 95.2%
- proportion of binucleated cardiomyocytes [2]: maximal increase

Structure (SMILES): COCCc1ccc(OCC(O)CNC(C)C)cc1 (centres unmarked) [Metoprolol, 1-[4-(2-methoxyethyl)phenoxy]-3-(propan-2-ylamino)propan-2-ol]
- heart-body-weight ratio [3]: did not alter
- total number of heart muscle cells (cardiomyocytes) [3]: did not alter

Structure (SMILES): C=C[C@@]1(C)CC(=O)[C@]2(O)[C@@]3(C)[C@@H](O)CCC(C)(C)[C@@H]3[C@H](O)[C@H](OC(C)=O)[C@@]2(C)O1 [forskolin]
- increase in the proportion of binucleated cardiomyocytes ([4]; after 4 days): 37%
- increase in the proportion of binucleated cardiomyocytes ([4]; after 8 days): 21%

Structure (SMILES): C=CCc1ccccc1OCC(O)CNC(C)C (centres unmarked) [alprenolol, 1-(propan-2-ylamino)-3-(2-prop-2-enylphenoxy)propan-2-ol]
- heart-body-weight ratio [3]: without altering
- total number of heart muscle cells (cardiomyocytes) [3]: increases
- heart weight ([4]; 2 i.p. injections per day, FIG. 16A, 16B): did not result in a change
- increase of cardiomyocyte endowment ([4]; at P8, 2 i.p. injections per day, counting fixation-digested hearts, FIG. 12D, 12H): 24%
- decrease of the proportion/formation of binucleated cardiomyocytes ([4]; treatment from P1 to P8, 2 i.p. injections per day (propranolol 10 μg/g; alprenolol 10 μg/g, 40 μg/g), FIG. 12C, 12G): 13%

— US20220280607A1, “Treatment of Heart Defects and Conditions in Pediatric Patients” (University of Pittsburgh - Of the Commonwealth System of …, priority 2019, published 2022)
